The test system of one data set is primary CD4+ T cells. The experiment in a line: in vitro. The note with it: for CC50: read-out: Viability (TC50), mock primary CD4+ T cells, 72 hours after treatment. The procedure: (§1) Inhibition of HIV-Nef was measured by assessing its capacity to downmodulate MHC-I HLA-A2 on the surface of primary CD4+ T cells 24-hours after treatment with each compound. V-ATPase inhibition was assessed at the same time point using lysosomal acidification as an indicator of V-ATPase activity. This was measured using a flow cytometric assay that quantified Lysotracker mean fluorescence intensity as previously described (Painter et al., 2020). Cell viability was measured at 24-hour and 72-hour time points using a previously described flow cytometric assay (Painter et al., 2020).
(§2) Anonymized leukocytes isolated by apheresis were obtained from New York Blood Center and peripheral blood mononuclear cells (PBMCs) were isolated by Ficoll-Paque Plus (17144002; GE Healthcare) centrifugation using SepMate tubes (85450; StemCell Technologies) according to the manufacturers protocol. […] Then, 20-24 hours post-PHA activation, 15 mL of R10/PHA medium is removed and replaced with 5 mL of R10+100u/mL Recombinant Human IL-2 (202|L010; R&D Systems). 48 hours after IL-2 stimulation, primary CD4^+ T cells were infected via spinoculation with previously described HIV ΔGPE construct.
(§3) 48 hours after spinoculation, cells were pooled and plated in flat bottom 96-well plate. […] Compounds were thawed at room temperature and diluted in R10 medium to 2× starting concentration.
(§4) All ΔGPE infected cells were collected 24 hours after treatment.
(§5) All Mock cells were collected 72 hours after treatment.
(§6) All statistical analyses were performed using GraphPad Prism software. Curves were generated using GraphPad Prism software using [Inhibitor] vs. response with variable slope (four parameters).

The next data set has as its target T1, V-ATPase (Homo sapiens, UniProt P27449).
T1 construct: endogenous in cells; host or cells: primary CD4+ T cells (HIV ΔGPE infected) from donor PBMCs
Kind of data set: Lysosomal acidification (Lysotracker mean fluorescence intensity) as indicator of V-ATPase activity in primary CD4+ T cells. It is filed as cell-based. The procedure: as §1, §2, §3, §4, §6

A further data set is described as follows: in vitro. To be noted: human. The procedure: as §1, §2, §3, §4, §5, §6
Setting [1] is: Lysotracker Red, ΔGPE infected primary CD4+ T cells, 24 hours after treatment, read-out: Lysotracker (V-ATPase IC50, lysosomal neutralization).

Where two headings read alike, the source gives them in different places.

T1 sequence (P27449 whole entry, looked up): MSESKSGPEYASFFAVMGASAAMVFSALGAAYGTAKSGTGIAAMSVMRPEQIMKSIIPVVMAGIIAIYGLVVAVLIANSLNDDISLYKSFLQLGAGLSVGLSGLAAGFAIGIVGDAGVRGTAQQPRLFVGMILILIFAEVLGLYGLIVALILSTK

Broadly, the IC50 is the point on the concentration scale where inhibition reaches its midpoint. For the compound “23-OH-tylactone [Compound S46, reference compound]”, the CC50 with primary CD4+ T cells was greater than 1000 nM. In addition, on V-ATPase (setting [1]), the 50% inhibitory concentration (IC50) is greater than 1000 nM.
With `C/C=C/[C@H]1O[C@@](O)([C@@H](C)[C@H](O)[C@H](C)[C@H]2OC(=O)/C(OC)=C/C(C)=C/[C@@H](C)[C@@H](O)[C@@H](CC)[C@@H](O)[C@H](C)C/C(C)=C/C=C/[C@@H]2OC)C[C@@H](O[C@H]2C[C@@H](O)[C@H](O)[C@@H](C)O2)[C@@H]1C` [Compound 5, concanamycin C, reference compound], in the data set with primary CD4+ T cells (ratio TC50 to Nef IC50), the “Viability:Nef (therapeutic window separating Nef IC50 and TC50)” value is on record as 2.3 fold. Further, the CC50 with primary CD4+ T cells came out at 1.3 nM. For the same compound, on V-ATPase (setting [1]), the 50% inhibitory concentration (IC50) turned out to be 3.7 nM.
For the compound `C/C=C/[C@H]1O[C@@](O)([C@@H](C)[C@H](O)[C@H](C)[C@H]2OC(=O)/C(OC)=C/C(C)=C/[C@@H](C)[C@@H](O)[C@@H](CC)[C@@H](O)[C@H](C)C/C(C)=C/C=C/[C@@H]2OC)C[C@@H](O)[C@@H]1C` [Compound 6, Concanamycin F], the CC50 in the data set “in vitro” came to 2.9 nM. Besides, half-maximal inhibition against V-ATPase (IC50) required 5.8 nM.
As to `C/C=C/[C@H]1O[C@@](O)([C@@H](C)[C@H](O)[C@H](C)[C@H]2OC(=O)/C(OC)=C/C(C)=C/[C@@H](C)[C@@H](O)[C@@H](C)[C@@H](O)[C@H](C)C/C(C)=C/C=C/[C@@H]2OC)C[C@@H](O)[C@@H]1C` [Compound 7, Concanamycin X], the CC50 in “in vitro” is 14 nM. Half-maximal inhibition against V-ATPase (IC50) required 38 nM.
On to `COc1cc2c(O)c3c(c(-c4ccc5c(c4)OCO5)c2cc1OC)C(=O)OC3` [Compound S1, Diphyllin, reference compound], for which the CC50 at 72 h in “in vitro” was greater than 1000 nM. Moreover, the IC50 at V-ATPase (setting [1]) is greater than 1000 nM.
Compound `C=CC(C)C(OC(=O)[C@@H](C)[C@H](O)[C@H](C)[C@H]1OC(=O)/C(OC)=C/C(C)=C/[C@@H](C)[C@@H](O)[C@@H](C)C/C(C)=C/C=C/[C@@H]1OC)C(C)C` (stereo partly drawn) [Compound S8] registered a CC50 in “in vitro” of 520 nM. On V-ATPase, this compound came in with an IC50 greater than 1000 nM.
`CO/C1=C\C(C)=C\[C@@H](C)[C@@H](O)[C@@H](C)C/C(C)=C/C=C/[C@H](OC)[C@@H]([C@@H](C)[C@@H](O)[C@H](C)[C@@]2(O)C[C@@H](OC(=O)c3ccccc3)[C@H](C)[C@@H](C(C)C)O2)OC1=O` [Compound S13]: in the data set “in vitro”, the CC50 is 130 nM. The same compound yielded a half-inhibitory concentration (IC50) on V-ATPase of 140 nM.
On to `CO[C@H]1/C=C/O[C@@]2(C)Oc3c(C)c(O)c4c(O)c(c(/C=N/N5CCN(C)CC5)c(O)c4c3C2=O)NC(=O)/C(C)=C\C=C\[C@H](C)[C@H](O)[C@@H](C)[C@@H](O)[C@@H](C)[C@H](OC(C)=O)[C@@H]1C` [Compound S26, Rifampicin, reference compound], for which the CC50 at 72 h in “in vitro” is greater than 1000 nM. For the same compound, the IC50 on V-ATPase (setting [1]) is greater than 1000 nM.
In the case of `CCC1OC(=O)C(C)C(OC2OC(C)CC(N(C)C)C2O)C(C)CC(C)C(=O)C=CC1C` (stereo not drawn) [Compound S30, YC-17, reference compound], the CC50 at 72 h in the data set “in vitro” is greater than 1000 nM. Also, at V-ATPase (setting [1]), the IC50 is greater than 1000 nM.
As to `CC[C@H]1OC(=O)[C@H](C)[C@@H](O[C@H]2C[C@@](C)(OC)[C@@H](O)[C@H](C)O2)[C@H](C)[C@@H](O[C@@H]2O[C@H](C)C[C@H](N(C)C)[C@H]2O)[C@](C)(O)C[C@@H](C)C(=O)[C@H](C)[C@@H](O)[C@H]1C` [Compound S32, Erythromycin B, reference compound], the CC50 at 72 h in “in vitro” is greater than 1000 nM. Further, on V-ATPase (setting [1]), the concentration for half-maximal inhibition (IC50) was greater than 1000 nM.
In turn, `CC[C@H]1OC(=O)[C@H](C)C(=O)[C@H](C)[C@@H](O[C@@H]2O[C@H](C)C[C@H](N(C)C)[C@H]2O)[C@@H](C)C[C@@H](C)C(=O)/C=C/[C@H]1C` [Compound S33, Narbomycin, reference compound] yielded a CC50 at 72 h in the data set “in vitro” greater than 1000 nM. Also, the IC50 on V-ATPase (setting [1]) was greater than 1000 nM.
For the compound `CC1=CC[C@H]2O[C@]1(C)O[C@H]([C@H](C)/C=C(C)/C=C/C(O)=C1/C(=O)CNC1=O)[C@H]2C` [Tirandamycin C, reference compound], in “in vitro”, the CC50 is greater than 1000 nM. The same compound showed an IC50 against V-ATPase greater than 1000 nM.
“Des-tylactone [Compound S47, reference compound]”: the CC50 in the data set with primary CD4+ T cells was greater than 1000 nM. For the same compound, the IC50 at V-ATPase (setting [1]) was greater than 1000 nM.

The values are drawn from patent US20260232713A1, “PLECOMACROLIDE DERIVATIVES FOR MHC-I NEF DOWNMODULATION” (priority 2022, published 2026).
